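Following 48 hours of exposure in 96-well plates, responses at five concentrations were used to interpolate endpoints linearly. Definition used: TGI = concentration required for complete inhibition of growth.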
Assays:
Assay in all cases: NCI-60 cell line screen, 48 h
A549 NSCLC = test system: A549 NSCLC
OVCAR-8 ovarian = test system: OVCAR-8 ovarian
NCI/ADR-RES ovarian = test system: NCI/ADR-RES ovarian
SK-MEL-5 melanoma = test system: SK-MEL-5 melanoma
TK-10 renal = test system: TK-10 renal
SNB-19 CNS = test system: SNB-19 CNS
MOLT-4 leukemia = test system: MOLT-4 leukemia
HS 578T breast = test system: HS 578T breast
ACHN renal = test system: ACHN renal
MDA-MB-435 = test system: MDA-MB-435
NCI-H460 lung = test system: NCI-H460 lung
RXF 393 renal = test system: RXF 393 renal
SF-295 CNS = test system: SF-295 CNS
MALME-3M melanoma = test system: MALME-3M melanoma
K-562 leukemia = test system: K-562 leukemia
SK-MEL-2 melanoma = test system: SK-MEL-2 melanoma
SK-OV-3 ovarian = test system: SK-OV-3 ovarian
MCF7 breast = test system: MCF7 breast
NCI-H522 lung = test system: NCI-H522 lung

Structure (SMILES)	TGI (A549 NSCLC)	TGI (OVCAR-8 ovarian)	TGI (NCI/ADR-RES ovarian)	TGI (SK-MEL-5 melanoma)	TGI (TK-10 renal)	TGI (SNB-19 CNS)	TGI (MOLT-4 leukemia)	TGI (HS 578T breast)	TGI (ACHN renal)	TGI (MDA-MB-435)	TGI (NCI-H460 lung)	TGI (RXF 393 renal)	TGI (SF-295 CNS)	TGI (MALME-3M melanoma)	TGI (K-562 leukemia)	TGI (SK-MEL-2 melanoma)	TGI (SK-OV-3 ovarian)	TGI (MCF7 breast)	TGI (NCI-H522 lung)
CCOP(=O)(O)C(Nc1ccc(N=Nc2ccccc2)cc1)c1cccc(C(Nc2ccc(N=Nc3ccccc3)cc2)P(=O)(O)OCC)c1 (centres undefined)	> 100 µM	> 100 µM	> 100 µM	> 100 µM	> 100 µM	> 100 µM	60.5 µM	> 100 µM	> 100 µM	> 100 µM	> 100 µM	> 100 µM	58.1 µM	> 100 µM	40 µM	> 100 µM	> 100 µM	> 100 µM	> 100 µM
O=C1CSC(c2ccccc2O)N1c1ccc(-n2c(-c3ccccc3)nc3ccccc3c2=O)cc1 (centres undefined)	> 100 µM	> 100 µM	72.6 µM	35.9 µM	> 100 µM	> 100 µM	> 100 µM	> 100 µM	83.6 µM	81.5 µM	50.8 µM	> 100 µM	50.5 µM	74.6 µM	> 100 µM	59.1 µM	95.3 µM	> 100 µM	66 µM
Cc1ccc2nc(NS(=O)(=O)c3cc(C)c(Cl)cc3S)[nH]c2c1	> 100 µM	> 100 µM	> 100 µM	> 100 µM	> 100 µM	> 100 µM	> 100 µM	> 100 µM	> 100 µM	> 100 µM	38.6 µM	> 100 µM	> 100 µM	> 100 µM	> 100 µM	> 100 µM	> 100 µM	> 100 µM	> 100 µM
CSc1nc(=O)cnn1C	> 100 µM	> 100 µM	> 100 µM	> 100 µM	> 100 µM	> 100 µM	> 100 µM	> 100 µM	> 100 µM	> 100 µM	> 100 µM	> 100 µM	> 100 µM	> 100 µM	> 100 µM	> 100 µM	> 100 µM	> 100 µM	> 100 µM
COc1ccc2nc3ccc(OC)cc3c(SCCCl)c2c1	> 100 µM	> 35.2 µM	> 58.7 µM	> 100 µM	> 100 µM	> 85.5 µM	16.4 µM	> 100 µM	> 100 µM	> 49.5 µM	> 100 µM	> 48.1 µM	> 100 µM	> 100 µM	> 46.5 µM	> 85.1 µM	> 100 µM	> 47 µM	> 100 µM
CCOC(=O)c1nc2ccc(C(F)(F)F)cc2nc1Nc1ccc(OC)cc1	> 100 µM	> 100 µM	> 100 µM	> 100 µM	> 100 µM	> 100 µM	> 100 µM	> 100 µM	> 100 µM	> 100 µM	> 100 µM	70.1 µM	77.6 µM	> 100 µM	> 100 µM	> 100 µM		> 100 µM	> 100 µM
O=[N+]([O-])/C(Cl)=C(/C(Cl)=C(Cl)Cl)N1CCOCC1	15.6 µM	11.9 µM	14.9 µM	3.48 µM	13.6 µM	38.3 µM	7.32 µM	14.9 µM	20.5 µM	7.64 µM	18.4 µM	7.93 µM	25.8 µM	3.07 µM	12.8 µM	11.6 µM	27.3 µM	8.25 µM	4.73 µM
Cc1[nH]c(-c2ccccc2)c2nc(N(C)C)oc(=O)c12	> 100 µM	> 100 µM	> 100 µM	> 100 µM	> 100 µM	> 100 µM	> 100 µM	> 100 µM	> 100 µM	> 100 µM	> 100 µM	> 100 µM	> 100 µM	> 100 µM	> 100 µM	> 100 µM	> 100 µM	> 100 µM	> 100 µM
COC(=O)/C=C/[C@@H]1[C@H](C)N1S(=O)(=O)c1ccc(C)cc1 (some centres undefined)	> 100 µM	> 100 µM	> 100 µM	> 100 µM	> 100 µM	> 100 µM	> 100 µM	> 100 µM	> 100 µM	> 100 µM	> 100 µM	> 100 µM	> 100 µM	> 100 µM	> 100 µM	> 100 µM	> 100 µM	> 100 µM	> 100 µM
COc1cc(OC)c2c(=O)c3cccc(C)c3n(C)c2c1	> 100 µM	> 100 µM	> 100 µM	60.6 µM	> 100 µM	> 100 µM	> 100 µM	> 100 µM	> 100 µM	> 100 µM	> 100 µM	> 100 µM	> 100 µM	> 100 µM	59.4 µM	> 100 µM	> 100 µM	> 100 µM	> 100 µM
CCCCCCCCCCCCCCCCNC(=O)/C(=C\c1ccc(Cl)c(Cl)c1)NC(=O)c1ccccc1	> 100 µM	> 100 µM	> 100 µM	> 100 µM	48.8 µM	> 100 µM	37.5 µM	> 100 µM	> 100 µM	> 100 µM	> 100 µM	31.8 µM	> 100 µM	> 100 µM	64.3 µM	> 100 µM	> 100 µM	59.1 µM	> 100 µM
CCOC(=O)C(=CNc1ccc(F)c(F)c1)C(=O)OCC	> 100 µM	> 100 µM	> 100 µM	> 100 µM	> 100 µM	> 100 µM	> 100 µM	> 100 µM	> 100 µM	> 100 µM	> 100 µM	> 100 µM		> 100 µM	> 100 µM	> 100 µM	> 100 µM	> 100 µM	> 100 µM
O=C1NCN(c2ccccc2)C12CCN(CC1COc3ccccc3O1)CC2 (centres undefined)	> 100 µM	> 100 µM	> 100 µM	> 100 µM	> 100 µM	85.3 µM	> 100 µM	71.8 µM	> 100 µM	> 100 µM	> 100 µM	96.5 µM	> 100 µM	> 100 µM	> 100 µM	> 100 µM	> 100 µM	> 100 µM	> 100 µM
O=C(NCCNCCNC(=O)c1cc(-c2ccccc2)nc2ccccc12)c1cc(-c2ccccc2)nc2ccccc12	9.13 µM	4.54 µM	4.18 µM	3.18 µM	7.96 µM	24.3 µM	5.52 µM	6.86 µM	4.85 µM	3.34 µM	2.97 µM	3.56 µM	3.28 µM	3.33 µM	3.99 µM	3.13 µM	17.7 µM	3.96 µM	6.97 µM
CC(C)(C)OC(=O)N1CCCC1C(=O)NC(c1ccccc1)c1ccccc1 (centres undefined)	> 100 µM	> 100 µM	> 100 µM	> 100 µM	> 100 µM	> 100 µM	> 100 µM	> 100 µM	> 100 µM	> 100 µM	> 100 µM	> 100 µM	> 100 µM	> 100 µM	> 100 µM	> 100 µM	> 100 µM	> 100 µM	> 100 µM
O=C1NC2(CCNCC2)Oc2ccccc21	> 100 µM	> 100 µM	> 100 µM	> 100 µM	> 100 µM	> 100 µM	> 100 µM	> 100 µM	> 100 µM	> 100 µM	> 100 µM	> 100 µM	> 100 µM	> 100 µM	> 100 µM	> 100 µM	> 100 µM	> 100 µM	> 100 µM
Cc1cn(C2CC(N=[N+]=[N-])C(COP(=O)(O)OCC3OC(n4cc(F)c(=O)[nH]c4=O)CC3O)O2)c(=O)[nH]c1=O (centres undefined)	> 100 µM	> 100 µM	> 24.6 µM	> 100 µM	> 100 µM	> 31.6 µM	> 37.2 µM	> 100 µM	> 100 µM	> 100 µM	> 100 µM	> 100 µM	> 100 µM	> 20.2 µM	> 65.7 µM	> 100 µM	> 100 µM	> 100 µM	> 100 µM
O=[N+]([O-])c1cccc2nccc(NCCN3CCOCC3)c12	43.3 µM	> 54.2 µM	> 100 µM	22.3 µM	> 48.4 µM	> 100 µM	> 56.5 µM	57.6 µM	> 59.4 µM	81.8 µM	32.5 µM	31.9 µM	25.6 µM	18.7 µM	> 56.7 µM	42.6 µM	> 100 µM	25.5 µM	22 µM
C=C1C(=O)O[C@H]2C1C[C@H](O)[C@@]1(C)OC1CC[C@@]1(C)O[C@H]21 (some centres undefined)	> 100 µM	39.6 µM	44 µM	35.4 µM	36.5 µM		29.8 µM	> 100 µM	34.2 µM	53.2 µM	> 100 µM	46.9 µM	> 100 µM	27.4 µM	19.7 µM	55.3 µM	> 100 µM	29.5 µM	11.9 µM
O=[N+]1[C@H](c2ccccc2)[C@H](c2ccccc2)N1[O-]	41.1 µM	32.7 µM	35.5 µM	30.9 µM	30.9 µM	35.1 µM	55.2 µM	> 100 µM	32.3 µM	34.3 µM	43.2 µM	28.3 µM	38.6 µM	32 µM	> 100 µM	32.8 µM	96.5 µM	30.5 µM	24.2 µM
O=C1NC(N/N=C\c2ccccc2)=N/C1=C/c1ccccc1	> 100 µM	> 100 µM	85.9 µM	> 100 µM	> 100 µM	73.6 µM	50 µM	80.7 µM	34.5 µM	> 100 µM	> 100 µM	73.1 µM	> 100 µM	> 100 µM	> 100 µM	> 100 µM	> 100 µM	> 100 µM	87 µM
CN=c1sc2nc(C#N)c(C#N)nc2n1C	33.9 µM		59.1 µM	35.4 µM	> 63.4 µM	> 62.6 µM	> 100 µM	> 100 µM	60.2 µM	52.1 µM	35.7 µM	40.5 µM	45.5 µM	36.4 µM	> 60 µM	40.7 µM	49.2 µM	38.1 µM	31.5 µM
CC1=NN(c2nc(N)nc(/C(C#N)=C\c3ccc(-c4ccc([N+](=O)[O-])cc4)o3)n2)C(C)(C)C1	> 100 µM	> 100 µM	> 100 µM	> 100 µM	> 100 µM	> 100 µM	> 100 µM	> 100 µM	> 100 µM	> 100 µM	> 100 µM	> 100 µM	> 100 µM	> 100 µM	> 100 µM	> 100 µM	> 100 µM	> 100 µM	> 100 µM
CCOc1ccc(NC(=O)C(=O)Nn2c(N)nnc2N)cc1	> 100 µM	> 100 µM	> 100 µM	> 100 µM	> 100 µM		> 100 µM	> 100 µM	> 100 µM	> 100 µM	> 100 µM	> 100 µM	> 100 µM	> 100 µM	> 100 µM	> 100 µM	> 100 µM	> 100 µM	> 100 µM
CC(C)(O)c1cc2c(cc1C(C)(C)O)-c1ccccc1-2	> 100 µM	> 100 µM	> 100 µM	> 100 µM	> 100 µM	> 100 µM	> 100 µM	> 100 µM	> 100 µM	> 100 µM	> 100 µM	> 100 µM	> 100 µM	> 100 µM	> 100 µM	> 100 µM		> 100 µM	> 100 µM

— PubChem BioAssay (NCI)
